# Results reported in article PMC7462607 (eLife, 2020).
# Values joined by “and” are separate entries in the source; they are usually repeats but may differ in a detail not shown here. Equal entries are not always repeated. Where two headings read alike, the source gives them in different places.
# Assays:
# HCT-116 cells = assay: Cell viability assay, parental HCT-116 and HQ461-resistant HCT-116 clones; assay type: cell-based, Homo sapiens; details: for CellTiter-Glo (ATP): raw signal, listed as 0461; for IC50: Homo sapiens, HCT-116
# Procedure: Seven hundred A549 cells or 1,000 HCT-116 cells in 50 µL of medium were plated per well in 384-well flat clear bottom white polystyrene TC-treated microplates (Corning, Corning, USA). After overnight attachment, cells were dosed with a serial dilution of HQ461 with a D300e digital dispenser (Tecan, Männedorf, Switzerland). Cell survival was measured 72 hr later using CellTiter-Glo luminescent cell viability assay kit (Promega, Madison, USA) following vendor instructions. Luminescence was recorded by EnVison multimode plate reader (PerkinElmer, Waltham, USA). IC50 was determined with GraphPad Prism using baseline correction (by normalizing to DMSO control), the asymmetric (five parameter) equation, and least squares fit.
# Parental HCT-116 were plated sparsely on 10 cm plates to allow the isolation of ten individual clones. Each of these ten clones were expanded to one confluent 15 cm plate to establish ten independent cell populations. One million cells from each population were then plated on one 10 cm plate and treated with 20 µM HQ461 continuously for two weeks, with media change every 3 to 4 days. HQ461 resistant clones emerged from 5 out of the 10 populations. These clones were isolated, expanded, and tested for their sensitivity to HQ461 using cell viability assay. Five HQ461-resistant clones selected from independent populations were subjected to genomic DNA isolation as described in the previous session. Their genomic DNAs were then pooled in equal amounts for whole-exome sequencing at 200x average coverage (Novogene, Beijing, China). As a control, genomic DNAs isolated from the corresponding cell populations before HQ461 selection were also pooled for whole-exome sequencing. Raw sequencing data have been deposited to NCBI GEO (GSE153707).
# [1] = biological target: T1, FLAG-Avi-DDB1 and His-CDK12KD/His-CCNKΔC (WT) (Homo sapiens, UniProt Q9NYV4); assay: AlphaScreen assay, WT; assay type: binding; details: for AlphaScreen: raw signal
# T1 construct: Human CDK12KD (residues 715–1052); made in house; host or cells: Sf9 or High Five (CDK12KD/CCNKΔC, co-infected with yeast CAK1); 293F with BirA (FLAG-Avi-DDB1)
# Procedure: Biotinylated FLAG-Avi-DDB1 (3 µM) and 6xHis-CDK12KD/6xHis-CCNKΔC (WT or G731E/R mutants) (3 µM) were mixed in an assay buffer (50 mM HEPES, pH7.5, 300 mM NaCl, 0.5 mM TCEP, 0.1% NP-40, 0.1% BSA) and a serial dilution of HQ461.The protein-compound mix was transferred to 384-well plates (Corning, Corning, USA); 15 μL per well. After a 1 hr room temperature incubation, 10 µL of nickel chelate (Ni-NTA) acceptor beads (PerkinElmer, Waltham, USA, Waltham, USA, 6760619C) (1:100 diluted with assay buffer) was added per well. After incubation in the dark for 1 hr at room temperature, 10 μL of streptavidin donor beads (PerkinElmer, Waltham, USA, 6760619C) (1:100 diluted in assay buffer) was added per well. After another 1 hr incubation, AlphaScreen signal was measured on the EnVision multimode plate reader (PerkinElmer, Waltham, USA). For THZ531 competition, FLAG-Avi-DDB1, 6xHis-CDK12KD/6xHis-CCNKΔC mix was preincubated with 5 μM of THZ531 for 30 min on ice followed by the procedures described above.
# [2] = tested on: CDK12KD/CCNKΔC (WT or G731E/R); assay: Nano DSF; assay type: binding, human; details: increasing concentrations of HQ461
# Procedure: CDK12KD/CCNKΔC (WT or G731E/R) or DDB1ΔBPB were diluted with DSF assay buffer (50 mM HEPES pH 7.5, 300 mM NaCl, 0.5 mM TCEP) to 3.6 µM and mixed with diluted HQ461 (final DMSO concentration 2%). Tryptophan fluorescence was measured using Tycho NT.6 (NanoTemper, South San Francisco, USA). During the thermal shift experiment, temperature was increased from 35°C to 95°C and fluorescence was scanned at 350 nm and 330 nm. Ti (inflection temperature of the unfolding transition) was calculated from the 350 nm/330 nm ratio.
# T1 sequence (Q9NYV4 715-1052 limits assumed, stated change not applied): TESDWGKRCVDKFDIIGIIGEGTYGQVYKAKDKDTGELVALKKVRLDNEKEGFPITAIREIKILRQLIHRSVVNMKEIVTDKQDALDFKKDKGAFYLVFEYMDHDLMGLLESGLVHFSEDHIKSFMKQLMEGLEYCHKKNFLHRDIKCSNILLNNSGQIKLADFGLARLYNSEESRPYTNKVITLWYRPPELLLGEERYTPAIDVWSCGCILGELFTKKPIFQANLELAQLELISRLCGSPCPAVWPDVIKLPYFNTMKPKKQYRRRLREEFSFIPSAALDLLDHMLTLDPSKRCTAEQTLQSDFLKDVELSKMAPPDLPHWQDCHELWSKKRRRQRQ
# T1 sequence (O75909 11-267 partner limits assumed): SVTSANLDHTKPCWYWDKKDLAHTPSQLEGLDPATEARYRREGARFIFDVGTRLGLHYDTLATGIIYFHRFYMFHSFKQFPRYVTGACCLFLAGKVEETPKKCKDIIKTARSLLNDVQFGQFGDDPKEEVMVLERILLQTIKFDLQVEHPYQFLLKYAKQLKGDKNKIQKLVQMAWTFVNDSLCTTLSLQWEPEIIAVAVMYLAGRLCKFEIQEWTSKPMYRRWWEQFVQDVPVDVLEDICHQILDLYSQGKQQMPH
# T1 sequence (Q16531 whole entry partner, the tested form may be a part): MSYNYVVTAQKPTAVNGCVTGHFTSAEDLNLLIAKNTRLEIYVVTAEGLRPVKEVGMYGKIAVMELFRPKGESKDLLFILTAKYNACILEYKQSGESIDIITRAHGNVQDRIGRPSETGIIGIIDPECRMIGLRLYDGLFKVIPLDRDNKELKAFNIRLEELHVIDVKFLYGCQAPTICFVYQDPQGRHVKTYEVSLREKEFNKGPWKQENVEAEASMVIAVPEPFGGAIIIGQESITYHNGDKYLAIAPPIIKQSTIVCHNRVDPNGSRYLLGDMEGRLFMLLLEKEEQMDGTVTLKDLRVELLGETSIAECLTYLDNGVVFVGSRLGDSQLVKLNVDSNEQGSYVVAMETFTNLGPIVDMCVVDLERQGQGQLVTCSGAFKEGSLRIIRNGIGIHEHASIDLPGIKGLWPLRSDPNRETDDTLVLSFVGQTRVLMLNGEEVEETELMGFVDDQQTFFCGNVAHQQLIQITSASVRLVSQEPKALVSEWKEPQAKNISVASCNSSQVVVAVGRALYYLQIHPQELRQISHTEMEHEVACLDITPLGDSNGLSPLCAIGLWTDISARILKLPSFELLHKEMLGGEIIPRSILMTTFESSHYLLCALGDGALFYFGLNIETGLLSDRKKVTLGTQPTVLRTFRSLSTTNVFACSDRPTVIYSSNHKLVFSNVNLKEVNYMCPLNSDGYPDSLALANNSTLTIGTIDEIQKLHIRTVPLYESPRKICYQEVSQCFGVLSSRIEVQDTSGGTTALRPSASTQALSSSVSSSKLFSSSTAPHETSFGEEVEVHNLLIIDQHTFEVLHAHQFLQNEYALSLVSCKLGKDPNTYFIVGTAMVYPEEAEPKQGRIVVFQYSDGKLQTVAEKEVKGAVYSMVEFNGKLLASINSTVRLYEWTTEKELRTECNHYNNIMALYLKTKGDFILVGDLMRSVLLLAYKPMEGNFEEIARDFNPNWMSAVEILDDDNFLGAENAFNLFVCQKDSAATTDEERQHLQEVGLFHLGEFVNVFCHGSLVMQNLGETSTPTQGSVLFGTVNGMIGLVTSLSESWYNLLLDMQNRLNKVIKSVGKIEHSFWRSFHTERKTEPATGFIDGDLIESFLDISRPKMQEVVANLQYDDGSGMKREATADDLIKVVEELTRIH
smiles,measurement,setting,value
"Cc1cccc(Nc2nc(CC(=O)Nc3ncc(C)s3)cs2)n1 [HQ461, 2-(2-((6-methylpyridin-2-yl)amino)thiazol-4-yl)-N-(5-methylthiazol-2-yl)acetamide]",CellTiter-Glo (ATP),"HCT-116 cells; HCT-116 Parental, 1.43856e-6 M",1.76E+06 and 1.77E+06 and 2.14E+06 and 2.07E+06
same,CellTiter-Glo (ATP),"HCT-116 cells; HCT-116 Parental, 1.85257e-5 M",147560 and 197570
same,CellTiter-Glo (ATP),"HCT-116 cells; HCT-116 Parental, 1.91632e-5 M",303300 and 182560
same,CellTiter-Glo (ATP),"HCT-116 cells; HCT-116 Parental, 3.09439e-5 M",96830 and 121990
same,CellTiter-Glo (ATP),"HCT-116 cells; HCT-116 Parental, 3.21364e-5 M",122490 and 116460
same,CellTiter-Glo (ATP),"HCT-116 cells; HCT-116 Parental, 5.00E-07 M",1.93E+06 and 2.16E+06
same,CellTiter-Glo (ATP),"HCT-116 cells; HCT-116 Parental, 5.19E-07 M",1.68E+06 and 1.79E+06
same,CellTiter-Glo (ATP),"HCT-116 cells; HCT-116 Parental, 7.99E-07 M",2.18E+06 and 1.85E+06
same,CellTiter-Glo (ATP),"HCT-116 cells; HCT-116 Parental, 8.79E-07 M",1.85E+06 and 1.84E+06
same,CellTiter-Glo (ATP),"HCT-116 cells; HCT-116 resistant clone 2R, 1.27872e-6 M",1.68E+06 and 1.80E+06
same,CellTiter-Glo (ATP),"HCT-116 cells; HCT-116 resistant clone 2R, 1.35864e-6 M",1.87E+06 and 1.72E+06
same,CellTiter-Glo (ATP),"HCT-116 cells; HCT-116 resistant clone 2R, 1.71705e-5 M",742920 and 664400
same,CellTiter-Glo (ATP),"HCT-116 cells; HCT-116 resistant clone 2R, 1.78082e-5 M",650900 and 675880
same,CellTiter-Glo (ATP),"HCT-116 cells; HCT-116 resistant clone 2R, 2.87969e-5 M",418620 and 384180
same,CellTiter-Glo (ATP),"HCT-116 cells; HCT-116 resistant clone 2R, 2.98307e-5 M",380430 and 316510
same,CellTiter-Glo (ATP),"HCT-116 cells; HCT-116 resistant clone 2R, 7.99E-07 M",1.71E+06 and 1.76E+06 and 1.66E+06 and 1.65E+06
same,CellTiter-Glo (ATP),"HCT-116 cells; HCT-116 resistant clone 5R, 1.1988e-6 M",1.40E+06 and 1.72E+06
same,CellTiter-Glo (ATP),"HCT-116 cells; HCT-116 resistant clone 5R, 1.27872e-6 M",1.47E+06 and 1.50E+06
same,CellTiter-Glo (ATP),"HCT-116 cells; HCT-116 resistant clone 5R, 1.59745e-5 M",708690 and 643890
same,CellTiter-Glo (ATP),"HCT-116 cells; HCT-116 resistant clone 5R, 1.65326e-5 M",713930 and 686510
same,CellTiter-Glo (ATP),"HCT-116 cells; HCT-116 resistant clone 5R, 2.67284e-5 M",402240 and 357240
same,CellTiter-Glo (ATP),"HCT-116 cells; HCT-116 resistant clone 5R, 2.77628e-5 M",421400 and 366190
same,CellTiter-Glo (ATP),"HCT-116 cells; HCT-116 resistant clone 5R, 7.19E-07 M",1.56E+06 and 1.54E+06 and 1.42E+06 and 1.57E+06
same,CellTiter-Glo (ATP),"HCT-116 cells; HCT-116 resistant clone 6R, 1.11888e-6 M",1.62E+06 and 1.45E+06
same,CellTiter-Glo (ATP),"HCT-116 cells; HCT-116 resistant clone 6R, 1.1988e-6 M",1.35E+06 and 1.55E+06
same,CellTiter-Glo (ATP),"HCT-116 cells; HCT-116 resistant clone 6R, 1.48579e-5 M",838610 and 815000
same,CellTiter-Glo (ATP),"HCT-116 cells; HCT-116 resistant clone 6R, 1.54163e-5 M",808740 and 730030
same,CellTiter-Glo (ATP),"HCT-116 cells; HCT-116 resistant clone 6R, 2.48182e-5 M",327830 and 270480
same,CellTiter-Glo (ATP),"HCT-116 cells; HCT-116 resistant clone 6R, 2.57734e-5 M",314810 and 296570
same,CellTiter-Glo (ATP),"HCT-116 cells; HCT-116 resistant clone 6R, 6.71E-07 M",1.36E+06 and 1.56E+06
same,CellTiter-Glo (ATP),"HCT-116 cells; HCT-116 resistant clone 6R, 6.95E-07 M",1.61E+06 and 1.53E+06
same,CellTiter-Glo (ATP),"HCT-116 cells; HCT-116 resistant clone 8R, 1.03896e-6 M",1.50E+06 and 1.58E+06
same,CellTiter-Glo (ATP),"HCT-116 cells; HCT-116 resistant clone 8R, 1.11888e-6 M",1.51E+06 and 1.63E+06
same,CellTiter-Glo (ATP),"HCT-116 cells; HCT-116 resistant clone 8R, 1.42995e-5 M",543300 and 1.00E+06
same,CellTiter-Glo (ATP),"HCT-116 cells; HCT-116 resistant clone 8R, 2.30667e-5 M",427880 and 390970
same,CellTiter-Glo (ATP),"HCT-116 cells; HCT-116 resistant clone 8R, 2.39426e-5 M",409850 and 403510
same,CellTiter-Glo (ATP),"HCT-116 cells; HCT-116 resistant clone 8R, 4.00787e-5 M",298050 and 276140
same,CellTiter-Glo (ATP),"HCT-116 cells; HCT-116 resistant clone 8R, 6.23E-07 M",1.45E+06 and 1.63E+06
same,CellTiter-Glo (ATP),"HCT-116 cells; HCT-116 resistant clone 8R, 6.47E-07 M",1.55E+06 and 1.60E+06
same,CellTiter-Glo (ATP),"HCT-116 cells; HCT-116 resistant clone 9R, 1.03896e-6 M",288440 and 333120
same,CellTiter-Glo (ATP),"HCT-116 cells; HCT-116 resistant clone 9R, 2.13941e-5 M",65580 and 36800
same,CellTiter-Glo (ATP),"HCT-116 cells; HCT-116 resistant clone 9R, 2.22704e-5 M",50040 and 30190
same,CellTiter-Glo (ATP),"HCT-116 cells; HCT-116 resistant clone 9R, 3.58708e-5 M",46680 and 23830
same,CellTiter-Glo (ATP),"HCT-116 cells; HCT-116 resistant clone 9R, 3.72209e-5 M",43970 and 22740
same,CellTiter-Glo (ATP),"HCT-116 cells; HCT-116 resistant clone 9R, 5.79E-07 M",315200 and 382800
same,CellTiter-Glo (ATP),"HCT-116 cells; HCT-116 resistant clone 9R, 5.99E-07 M",335950 and 324000
same,CellTiter-Glo (ATP),"HCT-116 cells; HCT-116 resistant clone 9R, 9.59E-07 M",277130 and 355980
same,increase of IC50 relative to parental HCT-116 cells,HCT-116 cells; HQ461-resistant HCT-116 clones,three-fold
same,IC50,"HCT-116 cells; five HQ461-resistant clones, read-out: IC50 on the viability of five HQ461-resistant HCT-116 clones",13 to 14.3 µM
same,IC50,HCT-116 cells; read-out: IC50 on the viability of parental HCT-116,4.6 µM
same,AlphaScreen,"[1]; WT + 5 µM THZ531, HQ461 2.22e-6 M",1078 and 1062 and 921
same,AlphaScreen,"[1]; WT + 5 µM THZ531, HQ461 6.67e-6 M",1168 and 926 and 865
same,AlphaScreen,"[1]; WT + 5 µM THZ531, HQ461 2e-5 M",1307 and 1119 and 970
same,AlphaScreen,"[1]; WT + 5 µM THZ531, HQ461 2.47E-07 M",1065 and 1007 and 926
same,AlphaScreen,"[1]; WT + 5 µM THZ531, HQ461 2.74E-08 M",1128 and 949 and 821
same,AlphaScreen,"[1]; WT + 5 µM THZ531, HQ461 7.41E-07 M",1120 and 993 and 799
same,AlphaScreen,"[1]; WT + 5 µM THZ531, HQ461 8.23E-08 M",1054 and 1033 and 906
same,AlphaScreen,"[1]; WT, HQ461 2.22e-6 M",11213 and 9188 and 8788
same,AlphaScreen,"[1]; WT, HQ461 6.67e-6 M",16665 and 12816 and 13014
same,AlphaScreen,"[1]; WT, HQ461 2e-5 M",20710 and 15836 and 15276
same,AlphaScreen,"[1]; WT, HQ461 2.47E-07 M",4781 and 3382 and 3265
same,AlphaScreen,"[1]; WT, HQ461 2.74E-08 M",2625 and 1724 and 1469
same,AlphaScreen,"[1]; WT, HQ461 7.41E-07 M",7377 and 5649 and 5718
same,AlphaScreen,"[1]; WT, HQ461 8.23E-08 M",2916 and 2037 and 1777
same,EC50,"[1]; WT, read-out: apparent EC50 of CDK12KD/CCNKΔC/DDB1 complex formation",1.9 µM
same,Tm of CDK12KD/CCNKΔC wild type or G731E/R mutants,[2],increased in an HQ461 concentration-dependent manner
